According to patent US20170190705A1, “Compositions and Methods for Inhibiting BMP” (THE BRIGHAM AND WOMAN'S HOSPITAL, INC., priority 2014, published 2017):

What was measured:
Type in all cases: biochemical
RON = RON (Homo sapiens, UniProt Q04912); experiment: Kinome profiling RON; settings: read-out: Inhibitory activity RON; for inhibition at 0.1 µM: 100 nM
Description: (§1) . The kinome-wide selectivity was determined following the methods previously reported by Mohedas et al., ACS Chem Biol 2013, 8, 1291-1302 and Sanvitale et al., PLoS One 2013, 8, e62721.

MRCK-α = MRCK-α (Homo sapiens, UniProt Q5VT25); experiment: Kinome profiling MRCK-α; settings: read-out: Inhibitory activity MRCK-α; for inhibition at 0.1 µM: 100 nM
Chain of MRCK-α (Q5VT25 whole entry): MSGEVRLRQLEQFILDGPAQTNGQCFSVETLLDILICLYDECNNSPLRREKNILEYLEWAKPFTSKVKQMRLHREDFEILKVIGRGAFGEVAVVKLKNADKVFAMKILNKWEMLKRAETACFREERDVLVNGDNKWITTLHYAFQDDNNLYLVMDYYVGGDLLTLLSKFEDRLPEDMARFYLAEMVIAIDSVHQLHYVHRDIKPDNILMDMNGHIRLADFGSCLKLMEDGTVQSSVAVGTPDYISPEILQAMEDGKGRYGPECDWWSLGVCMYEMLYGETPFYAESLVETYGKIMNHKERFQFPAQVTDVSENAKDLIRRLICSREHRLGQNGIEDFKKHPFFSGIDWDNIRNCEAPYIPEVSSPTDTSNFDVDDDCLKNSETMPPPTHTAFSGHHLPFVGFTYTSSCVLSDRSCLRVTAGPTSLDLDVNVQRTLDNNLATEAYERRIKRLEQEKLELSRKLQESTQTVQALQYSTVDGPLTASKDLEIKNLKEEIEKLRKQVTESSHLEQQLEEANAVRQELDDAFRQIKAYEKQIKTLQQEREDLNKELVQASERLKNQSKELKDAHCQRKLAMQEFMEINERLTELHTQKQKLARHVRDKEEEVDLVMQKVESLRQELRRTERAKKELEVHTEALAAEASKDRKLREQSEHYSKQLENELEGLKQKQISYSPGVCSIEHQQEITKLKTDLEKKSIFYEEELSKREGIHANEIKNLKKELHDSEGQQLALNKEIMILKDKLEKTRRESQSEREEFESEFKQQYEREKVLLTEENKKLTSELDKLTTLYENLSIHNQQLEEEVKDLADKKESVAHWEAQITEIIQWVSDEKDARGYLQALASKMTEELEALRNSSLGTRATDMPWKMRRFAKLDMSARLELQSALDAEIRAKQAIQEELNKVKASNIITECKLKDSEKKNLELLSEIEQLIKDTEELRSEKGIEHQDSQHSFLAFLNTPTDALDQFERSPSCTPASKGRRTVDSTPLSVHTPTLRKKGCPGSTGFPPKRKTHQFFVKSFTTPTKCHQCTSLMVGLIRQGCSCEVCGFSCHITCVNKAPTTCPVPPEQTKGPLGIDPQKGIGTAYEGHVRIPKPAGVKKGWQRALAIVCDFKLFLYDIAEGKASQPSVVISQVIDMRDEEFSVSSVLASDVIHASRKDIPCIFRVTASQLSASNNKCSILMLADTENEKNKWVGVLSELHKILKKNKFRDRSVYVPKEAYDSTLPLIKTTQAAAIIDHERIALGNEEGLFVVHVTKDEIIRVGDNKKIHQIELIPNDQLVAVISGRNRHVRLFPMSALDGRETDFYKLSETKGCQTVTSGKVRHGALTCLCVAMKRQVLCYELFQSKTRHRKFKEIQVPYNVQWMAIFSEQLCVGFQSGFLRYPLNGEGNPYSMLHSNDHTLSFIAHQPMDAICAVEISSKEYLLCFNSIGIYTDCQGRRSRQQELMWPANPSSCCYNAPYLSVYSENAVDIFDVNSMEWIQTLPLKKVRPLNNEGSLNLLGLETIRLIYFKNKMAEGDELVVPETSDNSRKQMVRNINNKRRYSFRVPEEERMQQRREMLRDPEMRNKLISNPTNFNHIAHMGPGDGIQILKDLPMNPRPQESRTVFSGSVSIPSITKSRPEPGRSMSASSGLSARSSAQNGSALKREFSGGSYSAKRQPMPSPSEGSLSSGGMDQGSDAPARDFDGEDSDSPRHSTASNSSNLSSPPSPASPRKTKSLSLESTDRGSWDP
Description: as §1

IKK-β = molecular target: T1, IKK-β (Homo sapiens, UniProt O14920); experiment: Kinome profiling IKK-β; settings: read-out: Inhibitory activity IKK-β; for inhibition at 0.1 µM: 100 nM
T1 sequence (O14920 1-756): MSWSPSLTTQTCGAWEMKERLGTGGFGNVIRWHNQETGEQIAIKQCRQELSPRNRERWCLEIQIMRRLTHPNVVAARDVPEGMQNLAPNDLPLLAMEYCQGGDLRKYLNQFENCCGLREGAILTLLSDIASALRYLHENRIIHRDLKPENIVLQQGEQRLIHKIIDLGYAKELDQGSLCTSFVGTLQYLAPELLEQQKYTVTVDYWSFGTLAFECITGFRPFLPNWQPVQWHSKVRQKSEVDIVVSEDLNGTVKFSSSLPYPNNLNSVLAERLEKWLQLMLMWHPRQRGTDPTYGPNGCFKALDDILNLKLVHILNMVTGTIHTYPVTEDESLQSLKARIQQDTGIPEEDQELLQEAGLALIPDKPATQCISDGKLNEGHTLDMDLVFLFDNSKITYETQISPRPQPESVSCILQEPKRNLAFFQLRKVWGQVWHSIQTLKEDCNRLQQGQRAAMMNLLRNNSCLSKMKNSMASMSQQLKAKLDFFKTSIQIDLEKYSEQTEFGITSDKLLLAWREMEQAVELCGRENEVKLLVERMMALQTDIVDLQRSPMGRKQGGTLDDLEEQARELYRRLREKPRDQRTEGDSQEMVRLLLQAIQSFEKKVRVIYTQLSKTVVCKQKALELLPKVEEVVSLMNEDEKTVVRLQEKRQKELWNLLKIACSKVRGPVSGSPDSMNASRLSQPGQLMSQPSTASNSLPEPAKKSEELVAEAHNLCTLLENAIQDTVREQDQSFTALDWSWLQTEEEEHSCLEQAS
Description: as §1

PRKD3 = molecular target: T2, PRKD3 (Homo sapiens, UniProt O94806); experiment: Kinome profiling PRKD3; settings: read-out: Inhibitory activity PRKD3; for inhibition at 0.1 µM: 100 nM
T2 sequence (O94806 1-890): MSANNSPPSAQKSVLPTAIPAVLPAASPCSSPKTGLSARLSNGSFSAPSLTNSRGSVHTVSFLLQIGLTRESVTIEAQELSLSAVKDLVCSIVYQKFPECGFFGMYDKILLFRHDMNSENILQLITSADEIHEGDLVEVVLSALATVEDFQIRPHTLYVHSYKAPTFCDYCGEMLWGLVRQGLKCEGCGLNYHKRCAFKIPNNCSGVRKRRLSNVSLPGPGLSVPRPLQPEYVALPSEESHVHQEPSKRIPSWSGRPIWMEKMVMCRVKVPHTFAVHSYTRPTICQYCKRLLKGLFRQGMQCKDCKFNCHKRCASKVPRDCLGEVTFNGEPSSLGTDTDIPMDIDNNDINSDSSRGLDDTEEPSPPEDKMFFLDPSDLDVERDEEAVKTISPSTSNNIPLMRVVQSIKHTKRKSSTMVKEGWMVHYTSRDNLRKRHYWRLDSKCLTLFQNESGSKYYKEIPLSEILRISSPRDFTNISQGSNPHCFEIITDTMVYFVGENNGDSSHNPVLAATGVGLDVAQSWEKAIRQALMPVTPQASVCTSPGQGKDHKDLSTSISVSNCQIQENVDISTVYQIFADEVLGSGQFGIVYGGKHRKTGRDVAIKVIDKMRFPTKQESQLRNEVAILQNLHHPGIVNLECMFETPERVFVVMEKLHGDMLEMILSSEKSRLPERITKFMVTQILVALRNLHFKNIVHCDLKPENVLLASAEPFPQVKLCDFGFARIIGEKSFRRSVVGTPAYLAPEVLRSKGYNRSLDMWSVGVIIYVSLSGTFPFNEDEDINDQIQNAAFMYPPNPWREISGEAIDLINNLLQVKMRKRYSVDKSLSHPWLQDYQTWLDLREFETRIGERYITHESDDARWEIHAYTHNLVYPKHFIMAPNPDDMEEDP
Description: as §1

PI3-K-δ = PI3-K-δ (Homo sapiens, UniProt O00329); experiment: Kinome profiling PI3-K-δ; settings: read-out: Inhibitory activity PI3-K-δ; for inhibition at 0.1 µM: 100 nM
Chain of PI3-K-δ (O00329 whole entry): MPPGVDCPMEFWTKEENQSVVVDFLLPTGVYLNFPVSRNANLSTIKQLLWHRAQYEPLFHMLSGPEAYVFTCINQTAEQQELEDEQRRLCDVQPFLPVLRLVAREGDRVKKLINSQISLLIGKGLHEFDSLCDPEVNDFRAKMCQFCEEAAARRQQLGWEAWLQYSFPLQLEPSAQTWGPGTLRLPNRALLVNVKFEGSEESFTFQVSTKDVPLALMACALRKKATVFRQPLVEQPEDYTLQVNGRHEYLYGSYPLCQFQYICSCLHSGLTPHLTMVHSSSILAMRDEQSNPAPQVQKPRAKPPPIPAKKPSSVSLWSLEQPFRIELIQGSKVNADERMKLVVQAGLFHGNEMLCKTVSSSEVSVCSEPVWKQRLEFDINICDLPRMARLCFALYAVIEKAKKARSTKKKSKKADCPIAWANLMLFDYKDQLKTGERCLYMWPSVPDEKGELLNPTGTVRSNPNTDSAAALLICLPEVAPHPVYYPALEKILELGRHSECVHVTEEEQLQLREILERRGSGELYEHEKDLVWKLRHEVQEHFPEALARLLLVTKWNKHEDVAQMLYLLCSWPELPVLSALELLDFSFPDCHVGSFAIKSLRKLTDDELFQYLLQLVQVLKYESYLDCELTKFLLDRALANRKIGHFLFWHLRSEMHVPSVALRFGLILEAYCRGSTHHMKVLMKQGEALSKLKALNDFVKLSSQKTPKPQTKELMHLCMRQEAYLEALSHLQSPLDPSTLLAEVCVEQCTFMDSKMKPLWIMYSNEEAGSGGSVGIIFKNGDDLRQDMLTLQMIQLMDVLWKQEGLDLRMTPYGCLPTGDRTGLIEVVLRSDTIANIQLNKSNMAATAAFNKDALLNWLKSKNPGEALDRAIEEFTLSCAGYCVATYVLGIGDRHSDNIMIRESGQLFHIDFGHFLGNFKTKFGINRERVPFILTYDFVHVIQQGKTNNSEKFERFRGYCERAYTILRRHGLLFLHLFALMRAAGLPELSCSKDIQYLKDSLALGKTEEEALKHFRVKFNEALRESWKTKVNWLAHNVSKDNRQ
Chain of PI3-K-δ (P27986 whole entry partner): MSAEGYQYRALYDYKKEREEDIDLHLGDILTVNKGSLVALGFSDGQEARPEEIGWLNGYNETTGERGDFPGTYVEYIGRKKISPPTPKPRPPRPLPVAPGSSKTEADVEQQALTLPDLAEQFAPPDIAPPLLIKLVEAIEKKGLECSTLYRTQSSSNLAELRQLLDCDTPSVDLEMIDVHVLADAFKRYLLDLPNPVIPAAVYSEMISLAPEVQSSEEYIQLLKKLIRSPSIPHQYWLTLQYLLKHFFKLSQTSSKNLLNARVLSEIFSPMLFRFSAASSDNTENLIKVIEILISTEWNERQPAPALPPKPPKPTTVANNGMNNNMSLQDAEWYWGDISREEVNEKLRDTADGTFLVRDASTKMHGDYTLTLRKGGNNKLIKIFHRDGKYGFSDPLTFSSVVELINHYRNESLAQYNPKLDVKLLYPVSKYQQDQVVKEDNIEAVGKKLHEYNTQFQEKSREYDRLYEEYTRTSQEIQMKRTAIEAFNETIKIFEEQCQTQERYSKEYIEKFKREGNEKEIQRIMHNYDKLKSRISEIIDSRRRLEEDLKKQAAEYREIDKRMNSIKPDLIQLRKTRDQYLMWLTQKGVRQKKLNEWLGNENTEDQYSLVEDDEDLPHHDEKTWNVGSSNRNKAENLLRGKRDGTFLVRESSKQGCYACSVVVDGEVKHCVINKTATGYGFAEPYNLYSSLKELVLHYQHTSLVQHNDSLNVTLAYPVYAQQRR
Description: as §1

Chain of RON (Q04912 25-1400): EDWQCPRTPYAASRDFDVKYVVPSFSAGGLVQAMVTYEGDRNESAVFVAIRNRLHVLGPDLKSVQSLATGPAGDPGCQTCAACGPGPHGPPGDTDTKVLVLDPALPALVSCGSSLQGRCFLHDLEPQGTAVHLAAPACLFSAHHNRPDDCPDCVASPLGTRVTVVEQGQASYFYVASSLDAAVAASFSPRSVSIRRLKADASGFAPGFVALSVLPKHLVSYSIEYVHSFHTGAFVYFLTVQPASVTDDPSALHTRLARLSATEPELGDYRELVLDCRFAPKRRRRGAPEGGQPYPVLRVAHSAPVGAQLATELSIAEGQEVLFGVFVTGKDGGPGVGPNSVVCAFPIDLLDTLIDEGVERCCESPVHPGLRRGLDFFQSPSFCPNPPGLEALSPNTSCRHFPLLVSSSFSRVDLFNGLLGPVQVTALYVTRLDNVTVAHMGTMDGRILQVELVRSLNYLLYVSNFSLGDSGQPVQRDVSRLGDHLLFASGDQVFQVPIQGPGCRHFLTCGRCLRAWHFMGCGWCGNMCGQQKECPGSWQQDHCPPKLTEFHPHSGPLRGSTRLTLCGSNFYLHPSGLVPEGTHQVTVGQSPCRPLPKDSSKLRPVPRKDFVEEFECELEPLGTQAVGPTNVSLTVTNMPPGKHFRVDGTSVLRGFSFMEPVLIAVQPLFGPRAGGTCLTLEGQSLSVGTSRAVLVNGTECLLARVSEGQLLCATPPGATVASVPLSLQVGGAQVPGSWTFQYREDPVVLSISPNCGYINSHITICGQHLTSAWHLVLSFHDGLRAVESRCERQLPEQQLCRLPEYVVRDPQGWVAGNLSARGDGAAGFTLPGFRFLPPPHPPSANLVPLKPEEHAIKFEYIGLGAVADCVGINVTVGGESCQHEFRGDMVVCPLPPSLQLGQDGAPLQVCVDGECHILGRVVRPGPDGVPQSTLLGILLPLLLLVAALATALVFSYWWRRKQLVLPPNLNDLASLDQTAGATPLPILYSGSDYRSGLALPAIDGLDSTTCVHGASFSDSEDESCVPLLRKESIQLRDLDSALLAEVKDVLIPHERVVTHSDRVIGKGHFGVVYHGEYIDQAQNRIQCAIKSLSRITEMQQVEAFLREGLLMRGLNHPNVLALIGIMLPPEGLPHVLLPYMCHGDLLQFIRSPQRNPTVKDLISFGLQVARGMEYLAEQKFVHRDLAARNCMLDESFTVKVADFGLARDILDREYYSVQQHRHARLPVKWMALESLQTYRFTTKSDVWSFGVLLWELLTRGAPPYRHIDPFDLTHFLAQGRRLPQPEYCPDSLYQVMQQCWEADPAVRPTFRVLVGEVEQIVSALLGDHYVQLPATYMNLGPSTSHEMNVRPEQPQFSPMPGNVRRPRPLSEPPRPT

`COc1cc(-c2cc(-c3ccc(N4CCNCC4)cc3)cnc2C)cc(OC)c1OC` [Compound 10, 1-(4-(6-methyl-5-(3,4,5-trimethoxyphenyl)pyridin-3-yl)phenyl)piperazine] gave an inhibition at 0.1 µM (RON) of 2%, an inhibition at 1 µM (RON) of 6% and an inhibition at 0.1 µM (MRCK-α) of -1%. The inhibition at 1 µM (MRCK-α) was 2%, the inhibition at 0.1 µM (IKK-β) was 2% and the inhibition at 1 µM (IKK-β) was 2%. The inhibition at 0.1 µM (PRKD3) was 2%, the inhibition at 1 µM (PRKD3) was 21% and the inhibition at 0.1 µM (PI3-K-δ) was 8%. It also gave an inhibition at 1 µM (PI3-K-δ) of 7%.

Molecule `COc1cc(-c2cc(-c3ccc(N4CCNCC4)cc3)cnc2N)cc(OC)c1OC` [Compound 15, 5-(4-(piperazin-1-yl)phenyl)-3-(3,4,5-trimethoxyphenyl)pyridin-2-amine] has an inhibition at 0.1 µM (RON) of 3%, an inhibition at 1 µM (RON) of 17% and an inhibition at 0.1 µM (MRCK-α) of 6%. For the same molecule, the inhibition at 1 µM (MRCK-α) was 50%, the inhibition at 0.1 µM (IKK-β) was 1% and the inhibition at 1 µM (IKK-β) was 3%. The inhibition at 0.1 µM (PRKD3) was 7%, the inhibition at 1 µM (PRKD3) was 38% and the inhibition at 0.1 µM (PI3-K-δ) was 3%. It also gave an inhibition at 1 µM (PI3-K-δ) of 7%.
